Assay results as given in ChEMBL document CHEMBL4425178, “A convenient synthesis and screening of benzosuberone bearing 1,2,3-triazoles against Mycobacterium tuberculosis” (2016).
Converted amounts (≈) assume the structure as drawn.

These compounds were tested on Mycobacterium tuberculosis (assay: Antimycobacterial activity against Mycobacterium tuberculosis H37Rv ATCC 27294 after 28 days by agar dilution assay). Settings: H37Rv ATCC 27294, 672 h.
Assay type: functional

Going from `COc1ccc2cc(-c3cn(C4CCCCc5ccccc54)nn3)ccc2c1` (stereo not drawn) to `COc1cccc(-c2cn(C3CCCCc4ccccc43)nn2)c1` (stereo not drawn), the MIC falls from > 25 µg/mL to 3.12 µg/mL (≈ 9.78 µM).

First: c1ccc(-c2cn(C3CCCCc4ccccc43)nn2)cc1 (stereo not drawn)
Second: c1cncc(-c2cn(C3CCCCc4ccccc43)nn2)c1 (stereo not drawn)
The MIC of the first is higher: > 25 µg/mL for the first, 12.5 µg/mL (≈ 43 µM) for the second.

First: CO[C@H]1/C=C/O[C@@]2(C)Oc3c(C)c(O)c4c(O)c(c(/C=N/N5CCN(C)CC5)c(O)c4c3C2=O)NC(=O)/C(C)=C\C=C\[C@H](C)[C@H](O)[C@@H](C)[C@@H](O)[C@@H](C)[C@H](OC(C)=O)[C@@H]1C [RIFAMPIN]
Second: CC(C)(C)c1ccc(-c2cn(C3CCCCc4ccccc43)nn2)cc1 (stereo not drawn)
The MIC of the first is 31-fold lower: 0.2 µg/mL (≈ 0.243 µM) for the first, 6.25 µg/mL (≈ 18.1 µM) for the second.

`CCCc1ccc(-c2cn(C3CCCCc4ccccc43)nn2)cc1` (stereo not drawn) and `CCc1ccc(-c2cn(C3CCCCc4ccccc43)nn2)cc1` (stereo not drawn) cannot be ordered by MIC: > 25 µg/mL for the first, > 25 µg/mL for the second.

First: CCCCCCc1cn(C2CCCCc3ccccc32)nn1 (stereo not drawn)
Second: CCCCCc1ccc(-c2cn(C3CCCCc4ccccc43)nn2)cc1 (stereo not drawn)
The MIC of the first is lower: 6.25 µg/mL (≈ 21 µM) for the first, > 25 µg/mL for the second.

Compared with `NNC(=O)c1ccncc1` [ISONIAZID], `c1ccc(-c2cn(C3CCCCc4ccccc43)nn2)nc1` (stereo not drawn) is 120-fold higher in MIC: 0.1 µg/mL (≈ 0.729 µM) for the first, 12.5 µg/mL (≈ 43 µM) for the second.

Compared with `c1cc(-c2cn(C3CCCCc4ccccc43)nn2)cc(-c2cn(C3CCCCc4ccccc43)nn2)c1` (stereo not drawn), `c1ccc2c(c1)CCCCC2n1cc(-c2cc3ccccc3c3ccccc23)nn1` (stereo not drawn) is higher in MIC: 6.25 µg/mL (≈ 12.5 µM) for the first, > 25 µg/mL for the second.

`c1ccc2c(c1)CCCCC2n1cc(-c2ccsc2)nn1` (stereo not drawn) and `Cc1ccc(-c2cn(C3CCCCc4ccccc43)nn2)cc1` (stereo not drawn) cannot be ordered by MIC: > 25 µg/mL for the first, > 25 µg/mL for the second.

Compared with `FC(F)(F)Oc1ccc(-c2cn(C3CCCCc4ccccc43)nn2)cc1` (stereo not drawn), `CC[C@@H](CO)NCCN[C@@H](CC)CO` [ETHAMBUTOL] is lower in MIC: > 25 µg/mL for the first, 3.13 µg/mL (≈ 15.3 µM) for the second.
